Laboratory results: ChEMBL document CHEMBL4627342, “Novel pyridone EP4 agonists featuring allylic alcohol ω-chains” (Bioorg Med Chem Lett, 2020)

What was measured:
Format in all cases: functional, cell-based
[1] = target: T1, Prostaglandin E2 receptor EP4 subtype (Homo sapiens, UniProt P35408); test: Agonist activity at human EP4 receptor expressed in HEK293 cells by calcium-5 dye based FLIPR assay
[2] = target: T1, Prostaglandin E2 receptor EP4 subtype; test: Agonist activity at human EP4 receptor expressed in HEK293 cells by calcium-5 dye based FLIPR assay relative to control
[3] = target: T2, Prostaglandin E2 receptor EP1 subtype (Homo sapiens, UniProt P34995); test: Agonist activity at human EP1 receptor expressed in HEK293 cells by calcium-5 dye based FLIPR assay
T2 sequence (P34995 whole entry): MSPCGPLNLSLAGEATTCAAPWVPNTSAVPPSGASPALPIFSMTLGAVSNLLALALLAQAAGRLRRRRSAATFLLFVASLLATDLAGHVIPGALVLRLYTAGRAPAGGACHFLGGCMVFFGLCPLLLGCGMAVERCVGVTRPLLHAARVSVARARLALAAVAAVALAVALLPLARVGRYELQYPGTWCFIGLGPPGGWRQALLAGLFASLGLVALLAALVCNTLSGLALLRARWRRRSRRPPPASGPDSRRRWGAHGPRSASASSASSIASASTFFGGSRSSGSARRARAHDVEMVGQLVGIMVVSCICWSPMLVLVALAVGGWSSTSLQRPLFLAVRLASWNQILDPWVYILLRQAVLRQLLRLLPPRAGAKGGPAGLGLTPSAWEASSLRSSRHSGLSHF

[4] = target: Prostaglandin E2 receptor EP2 subtype (Homo sapiens, UniProt P43116); test: Agonist activity at human EP2 receptor expressed in HEK293 cells by calcium-5 dye based FLIPR assay
Sequence of Prostaglandin E2 receptor EP2 subtype (P43116 whole entry): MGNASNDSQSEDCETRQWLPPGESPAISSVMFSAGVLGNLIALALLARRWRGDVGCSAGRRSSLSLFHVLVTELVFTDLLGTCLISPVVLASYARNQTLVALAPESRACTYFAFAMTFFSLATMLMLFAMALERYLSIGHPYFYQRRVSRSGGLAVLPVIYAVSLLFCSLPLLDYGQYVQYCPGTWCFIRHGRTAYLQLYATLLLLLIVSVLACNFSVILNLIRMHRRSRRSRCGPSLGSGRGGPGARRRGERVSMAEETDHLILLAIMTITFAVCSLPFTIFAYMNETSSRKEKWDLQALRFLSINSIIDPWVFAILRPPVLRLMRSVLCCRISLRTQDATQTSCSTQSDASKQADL

[5] = target: T3, Prostaglandin E2 receptor EP3 subtype (Homo sapiens, UniProt P43115); test: Agonist activity at human EP3 receptor expressed in HEK293 cells by calcium-5 dye based FLIPR assay
T3 sequence (P43115 whole entry): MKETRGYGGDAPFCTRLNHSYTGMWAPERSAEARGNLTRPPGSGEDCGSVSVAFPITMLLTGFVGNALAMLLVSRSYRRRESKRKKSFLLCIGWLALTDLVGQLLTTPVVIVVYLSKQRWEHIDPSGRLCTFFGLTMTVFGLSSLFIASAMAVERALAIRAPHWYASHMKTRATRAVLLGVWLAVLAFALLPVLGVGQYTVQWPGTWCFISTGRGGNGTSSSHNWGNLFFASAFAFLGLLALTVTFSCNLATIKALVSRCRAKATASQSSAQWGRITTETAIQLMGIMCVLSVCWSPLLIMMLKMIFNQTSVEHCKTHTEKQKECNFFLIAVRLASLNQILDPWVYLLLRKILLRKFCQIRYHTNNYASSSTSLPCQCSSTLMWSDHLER

T1 sequence (P35408 whole entry): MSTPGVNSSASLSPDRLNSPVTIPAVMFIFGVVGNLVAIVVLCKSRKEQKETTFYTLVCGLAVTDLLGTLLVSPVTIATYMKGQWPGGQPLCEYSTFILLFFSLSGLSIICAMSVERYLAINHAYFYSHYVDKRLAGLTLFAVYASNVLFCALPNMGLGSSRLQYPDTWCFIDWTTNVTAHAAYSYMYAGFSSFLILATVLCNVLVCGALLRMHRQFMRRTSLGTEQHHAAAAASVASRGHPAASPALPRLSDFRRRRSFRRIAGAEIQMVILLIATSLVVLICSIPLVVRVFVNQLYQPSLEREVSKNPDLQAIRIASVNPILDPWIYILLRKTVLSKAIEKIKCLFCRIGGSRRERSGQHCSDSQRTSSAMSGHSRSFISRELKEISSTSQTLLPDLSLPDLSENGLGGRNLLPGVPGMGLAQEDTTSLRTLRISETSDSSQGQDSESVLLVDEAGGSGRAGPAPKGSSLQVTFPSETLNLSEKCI

EC50 [1] [nM]	Emax [2] [%]	EC50 [3] [nM]	EC50 [4] [nM]	EC50 [5] [nM]	Compound
–	146	–	–	–	CCCCCC(O)/C=C/c1c(Cl)cc(Cl)c(=O)n1CCc1ccc(C(=O)O)cc1 (stereo in doubt; 9) [listing 1 of 2 here]
60	–	–	–	–	CCCCCC(O)/C=C/c1c(Cl)cc(Cl)c(=O)n1CCc1ccc(C(=O)O)cc1 (single isomer, unassigned; ent-9) [listing 1 of 2 here]
160	123	> 10000	> 10000	> 10000	CCCCCC(O)/C=C/c1c(Cl)cc(Cl)c(=O)n1CCCCCCC(=O)O (centres undefined)
13	–	–	–	–	CCCCCC(O)/C=C/c1c(Cl)cc(Cl)c(=O)n1CCc1ccc(C(=O)O)cc1 (stereo in doubt; 9) [listing 2 of 2 here]
–	129	–	–	–	CCCCCC(O)/C=C/c1c(Cl)cc(Cl)c(=O)n1CCc1ccc(C(=O)O)cc1 (racemic) [listing 2 of 2 here]

Continued, molecule first:

Compound	EC50 [1] [nM]	Emax [2] [%]	EC50 [3] [nM]	EC50 [4] [nM]	EC50 [5] [nM]
CCCCCC(O)/C=C/c1c(Br)cc(Br)c(=O)n1CCCCCCC(=O)O (centres undefined)	360	99	> 10000	> 10000	> 10000
CCCCCC(O)CCc1cccc(=O)n1CCCCCCC(=O)O (centres undefined)	550	103	2350	> 10000	2700
CCCCCC(O)/C=C/c1c(Cl)cc(Cl)c(=O)n1CCc1ccc(C(=O)O)cc1 (racemic) [listing 1 of 2 here]	7	–	> 10000	> 10000	> 10000
CCCCCC(O)CCc1c(Cl)cc(Cl)c(=O)n1CCc1ccc(C(=O)O)cc1 (centres undefined)	4.9	138	> 10000	1500	> 10000
CCCCCC(C)(O)/C=C/c1c(Cl)cc(Cl)c(=O)n1CCc1ccc(C(=O)O)cc1 (centres undefined)	29	139	> 10000	4700	> 10000
CCCCCC(O)/C=C/c1c(Cl)cc(Cl)c(=O)n1CCc1ccc(C(=O)O)cc1 (single isomer, unassigned; ent-9) [listing 2 of 2 here]	–	136	–	–	–
